The values that follow come from patent US11958865B1, “Leucine-rich repeat kinase 2 (LRRK2) inhibitors” (H. Lundbeck A/S, priority 2022, dated 2024).

For series [1], the target named is LRRK2 G2019S (Homo sapiens (Human), UniProt Q5S007, G2019S). The series is described as follows: LRRK2 G2019S LanthaScreen TR-FRET kinase activity assay. As to conditions: 250 pM kinase, 1.3 mM ATP, n≥2 tests. It counts as biochemical. As for the experimental part:
(§1) LRRK2 kinase activity was measured using a LanthaScreen kinase activity assay available from Invitrogen (Life Technologies Corporation). […] The phosphorylated peptide is recognized by a terbium-labelled phospho-specific anti-LRRKtide antibody (pLRRKtide antibody), obtainable from Life Technologies Corporation) and, subsequently, the phosphorylated LRRKtide can be quantified by the extent of TR-FRET between the terbium donor and fluorescein acceptor.
(§2) As discussed above, this mutation increases the kinase activity relative to the wild type. The kinase reactions were performed in a 20 μL volume in 384-well plates. The kinase reaction buffer consisted of 50 mM Tris pH 8.5, 0.01% BRIJ-35, 10 mM MgCl2, 1 mM EGTA, and 2 mM DTT.
(§3) The mixture was further incubated for 30 minutes at RT. TR-FRET was measured by excitation of the terbium-donor with 340 nm light and subsequent (delay time […]) measurement of terbium and fluorescein emission at 495 nm and 520 nm, respectively, over a time window of […]. The measurement was repeated 30 times for fluorescein and 30 times for terbium emission with a […] between repeats. TR-FRET measurements were performed on a Biotek Synergy plate. The TR-FRET signal was calculated as the emission-ratio at 520 nm over 495 nm.
(§4) Test compound potency (IC50) was estimated by nonlinear regression using the sigmoidal dose-response (variable slope) using Xlfit 4 (IDBS, Guildford, Surrey, UK, model 205). Were the IC50 could not be determined the % inhibition at the highest tested concentration is given by equation 1. Equation (1): y=(A+((B−A)/(1+((C/x)^D)))) (1)
(§5) where y is the normalized TR-TRET ratio measurement for a given concentration of test compound, x is the concentration of test compound, A is the estimated efficacy (% inhibition) at infinite compound dilution, and B is the maximal efficacy (% inhibition). C is the IC50 value and D is the Hill slope coefficient. IC50 estimates were obtained from independent experiment and the logarithmic average was calculated.

In series [2] the target is T1, LRRK2 WT (Homo sapiens (Human), UniProt Q5S007). The series is described as follows: LRRK2 wild-type LanthaScreen TR-FRET kinase activity assay. The series is classed as biochemical. As to conditions: 1 nM kinase, 1.3 mM ATP, n≥2 tests. On the procedure:
as §1, §2, §3, §4, §5

Series [3] addresses T1, LRRK2 WT. The series is described as follows: LRRK2 wild-type ADP-Glo kinase assay. The series is classed as biochemical. As to conditions: read-out: LRRK2 WT ADPGlo IC50. As for the experimental part: LRRK2 kinase activity was measured using an ADP-Glo kinase assay from Promega Corporation. The assay is a homogeneous luminescence-based assay that measures ADP formed from a kinase reaction. The ADP is converted into ATP, which is used to generate light in a luciferase reaction. The luminescence generated correlates with kinase activity.
The LRRK2 kinase was obtained from Invitrogen (Life Technologies Corporation) and comprises residue 970 to 2527 of the full length human wild-type LRRK2 kinase. The kinase reactions were performed in a 10 μL volume in 384-well plates. The kinase reaction buffer consisted of 50 mM Tris pH 8.5, 0.01% BRIJ-35, 10 mM MgCl2, 1 mM EGTA, and 2 mM DTT.
The reaction mixture (10 μl total volume) was incubated for 3 hours at room temperature (RT, ca. 25° C.), before the reaction was terminated by addition of 10 μl ADP-Glo reagent. The mixture was further incubated for 60 minutes at RT before addition of 20 μl Kinase detection reagent from the ADP-Glo assay kit. Luminescence signal was measure on a BMG Labtech Pherastar FSX multimode microplate reader. The signal integration time was 0.5 s.
Test compound potency (Ki,app) was estimated by nonlinear regression using the tight-binding fit model in GeneData Screener (GeneData AG). In cases where the Ki,app could not be determined, the % inhibition at the highest tested concentration is reported. The tight-binding fit model is given by euquation (2). […] Ki,app is the apparent dissociation constant of the inhibitor. The IC50 can be calculated as given by equation (3). Equation (3): IC50=Ki,app+[E]/2 (3) IC50 estimates were obtained from independent experiment and the logarithmic average was calculated.

The nature of series [4]: Hepatocyte intrinsic clearance assay. It counts as in vitro ADME, Human. As to conditions: pooled donor, cryopreserved hepatocytes, pH 7.4; human hepatocytes 1×10^6/mL; 0.05 μM; 2 h at 37° C. On the procedure: Test compounds (final concentration 0.05 μM, 0.05% organic) were incubated for 2 h at 37° C., with shaking, in supplemented Leibovitz L-15 media (pH 7.4) containing commercially sourced, pooled donor, cryopreserved hepatocytes (final concentration 1×10^6 hepatocytes/mL). The CLint reactions (350 μL) were initiated by addition of test compound. Aliquots (25 μL) were taken at 1, 5, 10, 15, 30, 60, 90 and 120 minutes and then protein crashed with ice-cold acetonitrile containing internal standard (150 μL) then centrifuged (1960 g for 20 minutes at 4° C.). Supernatant was diluted (1:4) with deionized water then analyzed by liquid chromatography (LC)-tandem mass spectrometry (MS/MS).

Series [5] in a line: Hepatic microsomal intrinsic clearance assay. The note with it: pooled liver microsomes, pH 7.4; liver microsomes 0.5 mg/mL; 1 μM; NADPH; 1 hour at 37° C.; LLOQ 0.36 L/h/kg. The series is classed as in vitro ADME. In short, it runs like this: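 Compounds at 1 μM final were incubated with pooled liver microsomes (0.5 mg/mL) in phosphate buffer pH 7.4 at 37 °C for up to 60 min. Samples taken at 0, 5, 10, 20, 30 and 60 min were quenched with acetonitrile and analysed by LC-MS/MS.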

T1 sequence (Q5S007 970-2527): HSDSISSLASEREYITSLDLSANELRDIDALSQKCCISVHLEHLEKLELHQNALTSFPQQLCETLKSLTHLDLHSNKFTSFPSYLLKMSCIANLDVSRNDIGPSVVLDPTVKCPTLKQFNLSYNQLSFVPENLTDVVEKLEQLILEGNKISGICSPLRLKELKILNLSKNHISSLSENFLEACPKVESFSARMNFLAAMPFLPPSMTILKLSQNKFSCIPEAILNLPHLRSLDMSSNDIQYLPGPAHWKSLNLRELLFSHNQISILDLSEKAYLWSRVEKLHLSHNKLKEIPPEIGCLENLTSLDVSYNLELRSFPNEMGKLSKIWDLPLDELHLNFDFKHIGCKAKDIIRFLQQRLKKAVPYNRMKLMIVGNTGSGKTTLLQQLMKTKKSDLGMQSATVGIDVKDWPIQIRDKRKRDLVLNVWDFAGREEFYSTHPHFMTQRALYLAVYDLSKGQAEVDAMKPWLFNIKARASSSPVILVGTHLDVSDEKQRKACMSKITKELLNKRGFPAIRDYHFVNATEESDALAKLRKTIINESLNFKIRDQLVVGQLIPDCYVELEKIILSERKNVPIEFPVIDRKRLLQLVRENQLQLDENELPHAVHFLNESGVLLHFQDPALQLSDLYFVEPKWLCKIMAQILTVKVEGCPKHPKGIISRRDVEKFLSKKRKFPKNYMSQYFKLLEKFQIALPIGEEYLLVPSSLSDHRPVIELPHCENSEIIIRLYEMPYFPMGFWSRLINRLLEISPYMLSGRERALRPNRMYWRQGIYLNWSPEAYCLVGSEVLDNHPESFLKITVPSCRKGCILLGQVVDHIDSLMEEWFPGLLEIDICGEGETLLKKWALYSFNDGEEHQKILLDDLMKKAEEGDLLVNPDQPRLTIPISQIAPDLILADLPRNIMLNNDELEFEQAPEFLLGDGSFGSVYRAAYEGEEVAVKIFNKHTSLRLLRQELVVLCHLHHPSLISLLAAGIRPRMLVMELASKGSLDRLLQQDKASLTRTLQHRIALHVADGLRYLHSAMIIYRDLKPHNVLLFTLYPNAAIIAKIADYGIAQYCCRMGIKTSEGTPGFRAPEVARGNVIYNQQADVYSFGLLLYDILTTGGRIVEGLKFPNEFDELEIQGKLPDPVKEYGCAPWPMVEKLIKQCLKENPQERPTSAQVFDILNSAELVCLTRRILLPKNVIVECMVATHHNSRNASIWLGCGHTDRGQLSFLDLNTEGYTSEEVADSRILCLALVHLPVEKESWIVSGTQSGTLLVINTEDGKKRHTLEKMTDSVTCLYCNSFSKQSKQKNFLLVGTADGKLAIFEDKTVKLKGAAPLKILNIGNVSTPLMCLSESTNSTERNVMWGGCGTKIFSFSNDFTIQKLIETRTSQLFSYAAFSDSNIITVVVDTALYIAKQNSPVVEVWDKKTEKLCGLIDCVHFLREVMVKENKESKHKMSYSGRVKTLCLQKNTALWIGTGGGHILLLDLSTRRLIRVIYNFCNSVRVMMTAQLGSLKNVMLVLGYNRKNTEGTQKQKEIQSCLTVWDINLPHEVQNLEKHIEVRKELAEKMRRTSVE
Sequence of LRRK2 G2019S (Q5S007 970-2527 G2019S): as the sequence (Q5S007 970-2527) above, with G1050S counted along it

As for `[2H]C([2H])([2H])Oc1ncccc1-n1nc2c(c1C)Nc1ncc3c(Cl)nn(c3n1)CCCO2` [Example 24, 8-Chloro-2-(2-(methoxy-d3)pyridin-3-yl)-3-methyl-2,4,12,13-tetrahydro-11H-5,7-(azenometheno)dipyrazolo[3,4-b:5′,1′-g][1]oxa[4,6,8]triazacycloundecine], the values for the IC50 in series [1], in series [2] and in series [3] were 0.35 nM, 0.95 nM and 0.49 nM, respectively. Also, in series [4], the CLint scaled at 0.05 μM was 17.7 mL/min/kg. The intrinsic clearance (CLint scaled) at 1 μM in series [5] is 12.5 mL/min/kg.
